Experimental data as given in paper PMC10141580, “Cyclic Dichalcogenides Extend the Reach of Bioreductive Prodrugs to Harness Thiol/Disulfide Oxidoreductases: Applications to seco-Duocarmycins Targeting the Thioredoxin System” (ACS Central Science, 2023).
Read-outs that look alike come from different tables or passages of the source.

Test system: NCI-60 standardized human tumor cell line panel
Assay: cells
Type: cell-based
[1] = cell line A549/ATCC (LC:A549/ATCC), TMI sheet
[2] = cell line BT-549 (BR:BT-549), TMI sheet
[3] = cell line CCRF-CEM (LE:CCRF-CEM), TMI sheet
[4] = cell line COLO 205 (CO:COLO 205), TMI sheet
[5] = cell line EKVX (LC:EKVX), TMI sheet
[6] = cell line HCC-2998 (CO:HCC-2998), TMI sheet
[7] = cell line HCT-15 (CO:HCT-15), TMI sheet
[8] = cell line HCT-116 (CO:HCT-116), TMI sheet
[9] = cell line HL-60(TB) (LE:HL-60(TB)), TMI sheet
[10] = cell line HOP-62 (LC:HOP-62), TMI sheet
[11] = cell line HOP-92 (LC:HOP-92), TMI sheet
[12] = cell line HT29 (CO:HT29), TMI sheet
[13] = cell line K-562 (LE:K-562), TMI sheet
[14] = cell line KM12 (CO:KM12), TMI sheet
[15] = cell line LOX IMVI (ME:LOX IMVI), TMI sheet
[16] = cell line M14 (ME:M14), TMI sheet
[17] = cell line MALME-3M (ME:MALME-3M), TMI sheet
[18] = cell line MCF7 (BR:MCF7), TMI sheet
[19] = cell line MDA-MB-435 (ME:MDA-MB-435), TMI sheet
[20] = cell line MOLT-4 (LE:MOLT-4), TMI sheet
[21] = cell line NCI-H23 (LC:NCI-H23), TMI sheet
[22] = cell line NCI-H226 (LC:NCI-H226), TMI sheet
[23] = cell line RPMI-8226 (LE:RPMI-8226), TMI sheet
[24] = cell line SF-268 (CNS:SF-268), TMI sheet
[25] = cell line SF-295 (CNS:SF-295), TMI sheet
[26] = cell line SF-539 (CNS:SF-539), TMI sheet
[27] = cell line SK-MEL-5 (ME:SK-MEL-5), TMI sheet
[28] = cell line SK-MEL-28 (ME:SK-MEL-28), TMI sheet
[29] = cell line SNB-19 (CNS:SNB-19), TMI sheet
[30] = cell line SR (LE:SR), TMI sheet
[31] = cell line SW-620 (CO:SW-620), TMI sheet
[32] = cell line T-47D (BR:T-47D), TMI sheet
[33] = cell line U251 (CNS:U251), TMI sheet
[34] = cell line UACC-62 (ME:UACC-62), TMI sheet
[35] = cell line UACC-257 (ME:UACC-257), TMI sheet

`COc1cc2cc(C(=O)N3C[C@@H](CCl)c4c3cc(OC(=O)N(CCC(=O)N3CCN(C)CC3)[C@H]3CCSSC3)c3ccccc43)[nH]c2c(OC)c1OC` [P-SS60-CBI-TMI] gave a GI50 (U251, read-out: GI50) of 0.16 µM, a GI50 (UACC-62, read-out: GI50) of 0.27 µM and a GI50 (UACC-257, read-out: GI50) of 0.63 µM. For the same compound, the “NCI-60 screening: Log(GI50)” value [1] was -6.82, the “NCI-60 screening: Log(RedIndex)” value [1] was 1.12 and the GI50 (cell line A549/ATCC (LC:A549/ATCC), TMI sheet, read-out: NCI-60 screening: Raw GI50) was 0.15 µM. The “NCI-60 screening: Log(GI50)” value [2] was -6.64, the “NCI-60 screening: Log(RedIndex)” value [2] was 0.84 and the GI50 (cell line BT-549 (BR:BT-549), TMI sheet, read-out: NCI-60 screening: Raw GI50) was 0.23 µM. The “NCI-60 screening: Log(GI50)” value [3] was -6.66, the “NCI-60 screening: Log(RedIndex)” value [3] was 0.66 and the GI50 (cell line CCRF-CEM (LE:CCRF-CEM), TMI sheet, read-out: NCI-60 screening: Raw GI50) was 0.22 µM. The “NCI-60 screening: Log(GI50)” value [4] was -6.47, the “NCI-60 screening: Log(RedIndex)” value [4] was 0.6 and the “NCI-60 screening: Log(GI50)” value [5] was -6.5. For the same compound, the “NCI-60 screening: Log(RedIndex)” value [5] was 0.79, the “NCI-60 screening: Log(GI50)” value [6] was -6.8 and the “NCI-60 screening: Log(RedIndex)” value [6] was 0.98. For the same compound, the GI50 (cell line HCC-2998 (CO:HCC-2998), TMI sheet, read-out: NCI-60 screening: Raw GI50) was 0.16 µM, the “NCI-60 screening: Log(GI50)” value [7] was -6.59 and the “NCI-60 screening: Log(RedIndex)” value [7] was 0.82. For the same compound, the GI50 (cell line HCT-15 (CO:HCT-15), TMI sheet, read-out: NCI-60 screening: Raw GI50) was 0.26 µM, the “NCI-60 screening: Log(GI50)” value [8] was -6.8 and the “NCI-60 screening: Log(RedIndex)” value [8] was 0.98. For the same compound, the GI50 (cell line HCT-116 (CO:HCT-116), TMI sheet, read-out: NCI-60 screening: Raw GI50) was 0.16 µM, the “NCI-60 screening: Log(GI50)” value [9] was -6.92 and the “NCI-60 screening: Log(RedIndex)” value [9] was 0.8. For the same compound, the “NCI-60 screening: Log(GI50)” value [10] was -6.96, the “NCI-60 screening: Log(RedIndex)” value [10] was 0.73 and the “NCI-60 screening: Log(GI50)” value [11] was -6.46. For the same compound, the “NCI-60 screening: Log(RedIndex)” value [11] was 0.86, the “NCI-60 screening: Log(GI50)” value [12] was -6.57 and the “NCI-60 screening: Log(RedIndex)” value [12] was 0.75. The GI50 (cell line HT29 (CO:HT29), TMI sheet, read-out: NCI-60 screening: Raw GI50) was 0.27 µM, the “NCI-60 screening: Log(GI50)” value [13] was -6.79 and the “NCI-60 screening: Log(RedIndex)” value [13] was 0.62. For the same compound, the GI50 (cell line K-562 (LE:K-562), TMI sheet, read-out: NCI-60 screening: Raw GI50) was 0.16 µM, the “NCI-60 screening: Log(GI50)” value [14] was -6.57 and the “NCI-60 screening: Log(RedIndex)” value [14] was 0.89. For the same compound, the GI50 (cell line KM12 (CO:KM12), TMI sheet, read-out: NCI-60 screening: Raw GI50) was 0.27 µM, the “NCI-60 screening: Log(GI50)” value [15] was -6.68 and the “NCI-60 screening: Log(RedIndex)” value [15] was 0.72. For the same compound, the GI50 (cell line LOX IMVI (ME:LOX IMVI), TMI sheet, read-out: NCI-60 screening: Raw GI50) was 0.21 µM, the “NCI-60 screening: Log(GI50)” value [16] was -6.72 and the “NCI-60 screening: Log(RedIndex)” value [16] was 0.9. For the same compound, the GI50 (cell line M14 (ME:M14), TMI sheet, read-out: NCI-60 screening: Raw GI50) was 0.19 µM, the “NCI-60 screening: Log(GI50)” value [17] was -6.55 and the “NCI-60 screening: Log(RedIndex)” value [17] was 0.75. For the same compound, the “NCI-60 screening: Log(GI50)” value [18] was -7.45, the “NCI-60 screening: Log(RedIndex)” value [18] was 0.95 and the “NCI-60 screening: Log(GI50)” value [19] was -6.67. For the same compound, the “NCI-60 screening: Log(RedIndex)” value [19] was 0.92, the GI50 (cell line MDA-MB-435 (ME:MDA-MB-435), TMI sheet, read-out: NCI-60 screening: Raw GI50) was 0.21 µM and the “NCI-60 screening: Log(GI50)” value [20] was -7.05. For the same compound, the “NCI-60 screening: Log(RedIndex)” value [20] was 0.82, the “NCI-60 screening: Log(GI50)” value [21] was -7.26 and the “NCI-60 screening: Log(RedIndex)” value [21] was 0.93. For the same compound, the “NCI-60 screening: Log(GI50)” value [22] was -6.36, the “NCI-60 screening: Log(RedIndex)” value [22] was 0.52 and the “NCI-60 screening: Log(GI50)” value [23] was -6.65. The “NCI-60 screening: Log(RedIndex)” value [23] was 0.82, the GI50 (cell line RPMI-8226 (LE:RPMI-8226), TMI sheet, read-out: NCI-60 screening: Raw GI50) was 0.22 µM and the “NCI-60 screening: Log(GI50)” value [24] was -6.73. For the same compound, the “NCI-60 screening: Log(RedIndex)” value [24] was 0.92, the GI50 (cell line SF-268 (CNS:SF-268), TMI sheet, read-out: NCI-60 screening: Raw GI50) was 0.19 µM and the “NCI-60 screening: Log(GI50)” value [25] was -6.84. For the same compound, the “NCI-60 screening: Log(RedIndex)” value [25] was 1.03, the “NCI-60 screening: Log(GI50)” value [26] was -6.78 and the “NCI-60 screening: Log(RedIndex)” value [26] was 0.89. For the same compound, the GI50 (cell line SF-539 (CNS:SF-539), TMI sheet, read-out: NCI-60 screening: Raw GI50) was 0.17 µM, the “NCI-60 screening: Log(GI50)” value [27] was -6.78 and the “NCI-60 screening: Log(RedIndex)” value [27] was 0.99. The GI50 (cell line SK-MEL-5 (ME:SK-MEL-5), TMI sheet, read-out: NCI-60 screening: Raw GI50) was 0.17 µM, the “NCI-60 screening: Log(GI50)” value [28] was -6.53 and the “NCI-60 screening: Log(RedIndex)” value [28] was 1.09. For the same compound, the GI50 (cell line SK-MEL-28 (ME:SK-MEL-28), TMI sheet, read-out: NCI-60 screening: Raw GI50) was 0.29 µM, the “NCI-60 screening: Log(GI50)” value [29] was -6.6 and the “NCI-60 screening: Log(RedIndex)” value [29] was 0.94. The GI50 (cell line SNB-19 (CNS:SNB-19), TMI sheet, read-out: NCI-60 screening: Raw GI50) was 0.25 µM, the “NCI-60 screening: Log(GI50)” value [30] was -7.47 and the “NCI-60 screening: Log(RedIndex)” value [30] was 0.91. For the same compound, the “NCI-60 screening: Log(GI50)” value [31] was -6.66, the “NCI-60 screening: Log(RedIndex)” value [31] was 0.93 and the GI50 (cell line SW-620 (CO:SW-620), TMI sheet, read-out: NCI-60 screening: Raw GI50) was 0.22 µM. For the same compound, the “NCI-60 screening: Log(GI50)” value [32] was -6.16, the “NCI-60 screening: Log(RedIndex)” value [32] was 0.44 and the “NCI-60 screening: Log(GI50)” value [33] was -6.79. For the same compound, the “NCI-60 screening: Log(RedIndex)” value [33] was 0.96, the GI50 (cell line U251 (CNS:U251), TMI sheet, read-out: NCI-60 screening: Raw GI50) was 0.16 µM and the “NCI-60 screening: Log(GI50)” value [34] was -6.57. The “NCI-60 screening: Log(RedIndex)” value [34] was 0.75, the GI50 (cell line UACC-62 (ME:UACC-62), TMI sheet, read-out: NCI-60 screening: Raw GI50) was 0.27 µM and the “NCI-60 screening: Log(GI50)” value [35] was -6.2. The “NCI-60 screening: Log(RedIndex)” value [35] was 0.5 and the GI50 (read-out: NCI-60 screening: Raw GI50) was 0.23 µM.
